Experiment [1] can be described thus: Tasting of Nam Pla (Thai fish sauce) samples by a professional panel. The following applies: sample 6: Nam Pla + 20 ppm of composition of example 2. As to the method:
(§1) Six samples were prepared:
3. Nam Pla* ex Unilever Thailand;
4. Nam Pla ex Unilever Thailand+100 ppm of a composition as prepared in example 1;
6. Nam Pla ex Unilever Thailand+20 ppm of a composition as prepared in example 2.
Nam Pla is a Thai fish sauce produced from a mixture of fish (anchovy), salt and sugar that is fermented for more than 6 months at 30-35° C. Protein hydrolysate and lipid oxidation products are formed through microbiological and enzymatic breakdown of the fish.
(§2) All samples were tasted by a professional panel. There was general agreement about the differences in taste between the samples.

The nature of experiment [2]: Tasting of fish bouillon samples by a professional panel. The following applies: sample 5: fish bouillon + 20 ppm of composition of example 2. As to the method: as §1
2. Fish bouillon+100 ppm of a composition as prepared in example 1;
5. Fish bouillon+20 ppm of a composition as prepared in example 2; and
as §2

Experiment [3] is described as follows: Tasting session of tap water solutions by a professional panel. As to the method:
For a tasting session the following solutions were prepared: • 1) A solution of 0.025% of a composition as prepared in example 1 in tap water; • 2) A solution of 0.025% of a composition as prepared in example 1 and 0.3% NaCl in tap water; • 3) A solution of 0.025% of a composition as prepared in example 1, 0.3% NaCl and 0.03% mono sodium glutamate in tap water; • 4) A solution of 0.005% of a composition as prepared in example 2 in tap water; • 5) A solution of 0.005% of a composition as prepared in example 2 and 0.3% NaCl in tap water; and • 6) A solution of 0.005% of a composition as prepared in example 2, 0.3% NaCl and 0.03% mono sodium glutamate in tap water. • All samples were tasted by a professional panel.

The text below walks through data of US20080206422A1, “Flavour Modulating Substances” (QUEST INTERNATIONAL SERVICES B.V., priority 2004, published 2008).

Take `CC(O)C(=O)NCCc1ccc(O)cc1` (stereo not drawn) [example 2, N-lactoyl tyramine]: the “difference in taste compared with plain Nam Pla (sample 3)” value in experiment [1] was “more body and mouthfeel, a stronger sweet taste impression and a more longlasting effect”. Moreover, in experiment [1], the “fermented fish character and perceived quality compared with plain Nam Pla (sample 3)” value was “a more rounded, natural fermented fish character and was perceived as a higher quality Nam Pla”. For the same compound, the “difference in taste compared with plain fish bouillon (sample 1)” value in experiment [2] is “more body and mouthfeel, a stronger sweet taste impression and a more longlasting effect”. Besides, the “taste description by professional panel” value in experiment [3] (solution 4): 0.005% of composition of example 2 in tap water) is “a clean mouthfeel, body and thickness”; in experiment [3] (solution 5): 0.005% of composition of example 2 and 0.3% NaCl in tap water), “a longlasting effect, a clean mouthfeel, body and thickness and as bouillon-like”; in experiment [3] (solution 6): 0.005% of composition of example 2, 0.3% NaCl and 0.03% mono sodium glutamate in tap water), “a longlasting effect, a strong clean mouthfeel, body and thickness and as strong, natural and complex bouillon-like”.
